Measured values from WO2017093157A1, “Piperidine, pyrrolidine and 2-oxo-1,3-oxazinane derivatives as inhibitors of bacterial efflux-pumps for the treatment of microbial infections” (Basilea Pharmaceutica AG, priority 2015, dated 2017).

How the values were obtained:
[1] = test system: E. coli ATCC25922; experiment: Antibacterial activity in combination with linezolid, E. coli; format: cell-based; conditions: Escherichia coli, linezolid 128 μg/mL, compound 50 μM, OD625 23 h minus 1 h
[2] = test system: P. aeruginosa PAOl; experiment: Antibacterial activity in combination with linezolid, P. aeruginosa; format: cell-based; conditions: Pseudomonas aeruginosa, linezolid 128 μg/mL, compound 50 μM, OD625 23 h minus 1 h

| SMILES | residual growth (% of uninhibited control) at 50 µM [1] | residual growth (% of uninhibited control) at 50 µM [2] |
| --- | --- | --- |
| NCC1COC(=O)N(Cc2cc(C=O)cc(OCc3ccc(Cl)cc3Br)c2)C1 (centres unmarked) [Example 7, 3-[[5-(aminomethyl)-2-oxo-l,3-oxazinan-3-yl]methyl]-5-[(2-bromo-4-chloro-phenyl)methoxy]benzaldehyde] | ≤ 50% | – |
| C[N+]1(Cc2cc(OCCc3c[nH]cn3)cc(OCc3ccc(Cl)cc3Br)c2)CCC(CN)C1 (stereo not drawn) [Example 23, [l-[[3-[(2-bromo-4-chloro-phenyl)methoxy]-5-[2-(7H-imidazol-4-yl)ethoxy]phenyl]methyl]-l-methyl-pyrrolidin-l-ium-3-yl]methanamine] | – | ≤ 50% |
